Legend:
[1] = Stability measured by degradation products (DP, HPLC area-%); type: physicochemical
Method: DPs are analyzed by HPLC (method see Table 3). They are calculated as area-% products. Compositions of the mixtures in mass % are as follows.
For salts in water, acetonitrile was added to dilute the 0.2% slurry to 0.1% clear solution. For salts in methanol, acetonitrile or acetonitrile/water (50:50, v/v), the corresponding solvent or solvent mixture was added to dilute the 0.2% slurry to 0.1% clear solution. For salts in 0.5% CMC, HPMC cellulose 4000 0.5%, or Tween 80, 0.8%, tetrahydrofuran and water were added to dilute the 2% slurry to 0.1% clear solution and to reach tetrahydrofuran/water 50:50 (v/v). For bulk stability samples (including the samples in excipient mixtures), acetonitrile/water (80:20, v/v) was added to make 0.1% clear solution.

[2] = Stability: appearance color (CL); type: physicochemical
[3] = Solid form after stress test (XRPD/DSC); type: physicochemical
[4] = Bulk corrosivity with stainless steel coupon; type: physicochemical; conditions: 2 day 80% r.h. with stainless steel coupon; change in the surface of the coupon
[5] = pH of 1% solution or suspension; type: physicochemical; conditions: In water
Method: The solutions were stirred continuously as the pH was measured.

[6] = Thermogravimetry (weight loss / loss on drying); type: physicochemical; conditions: at 150° C.
[7] = Hygroscopicity, DVS sorption/desorption isotherms; type: physicochemical; conditions: for DVS Desorp. Weight % chg. / DVS Sorp. Weight % chg.: 25° C.
Method: Sorption/desorption isotherms: Instrument, Surface Measurement System DVS-1 temperature at 25±0.5° C.

[8] = Crystal modification after 72 hours vibration (polymorphism behavior of slurries); type: physicochemical
Excerpt: The slurries were filtered and the solids collected for XRPD analyses.

[9] = pH 6.8
[10] = physchem; conditions: 25 °C, thermodynamic from solid, Solubility (approx. at 25° C., mg/ml)

## Cc1c(C(=O)Nc2ccc(N3C[C@@H](C)O[C@@H](C)C3)nc2)cccc1-c1ccc(OC(F)(F)F)cc1.Cl [Hydrochloride, mono]
[1]; 0.2% solutions or suspensions, 2 week 50° C., Acetonitrile
  DP [%]: 0.38%
[1]; 0.2% solutions or suspensions, 2 week 50° C., Acetonitrile/Water (50:50)
  DP [%]: 1.72%
[1]; 0.2% solutions or suspensions, 2 week 50° C., Methanol
  DP [%]: 2.06%
[1]; 0.2% solutions or suspensions, 2 week 50° C., Water
  DP [%]: 0.31%
[1]; 2% (or 5%) solutions or suspensions, 1 day room temperature, 0.5% CMC
  DP [%]: 0.33%
[1]; 2% (or 5%) solutions or suspensions, 1 day room temperature, HPMC Cellulose 4000 0.5%
  DP [%]: 0.32%
[1]; 2% (or 5%) solutions or suspensions, 1 day room temperature, Tween 80, 0.8%
  DP [%]: 0.31%
[1]; 2 weeks 50° C., tight container, 1% in mixture 1 (Lactose/maize starch/Aerosil/Magnesiumstearate)
  DP [%]: 0.27%
[1]; 2 weeks 50° C., tight container, 1% in mixture 2 (Mannitol/Avicel PH 102/Cutina HR)
  DP [%]: 0.39%
[1]; 2 weeks 50° C./75% r.h., 1% in mixture 1
  DP [%]: 2.85%
[1]; 2 weeks 50° C./75% r.h., 1% in mixture 2
  DP [%]: 0.31%
[1]; Solid state, 2 week 50° C., tight container, Bulk (HPLC)
  DP [%]: 0.31%
[1]; Solid state, 2 week 50° C./75% r.h., Bulk (HPLC)
  DP [%]: 0.29%
[1]; Solid state, 2 week 80° C., tight container, Bulk (HPLC)
  DP [%]: 0.35%
[1]; Solid state, 2 week 80° C./75% r.h., Bulk (HPLC)
  DP [%]: 0.35%
[1]; Unstressed drug substance, bulk
  DP [%]: 0.30%
[1]; Xenon light (approx. 1200 kLuxh), Bulk (HPLC)
  DP [%]: 1.46%
[2]; 0.2% solutions or suspensions, 2 week 50° C., Acetonitrile/Water (50:50), clear solution after stress test (*)
  CL: A *
[2]; 0.2% solutions or suspensions, 2 week 50° C., Acetonitrile, clear solution after stress test (*)
  CL: A *
[2]; 0.2% solutions or suspensions, 2 week 50° C., Methanol, clear solution after stress test (*)
  CL: A *
[2]; 0.2% solutions or suspensions, 2 week 50° C., Water, suspension (↓)
  CL: A ↓
[2]; 2% (or 5%) solutions or suspensions, 1 day room temperature, 0.5% CMC, suspension (↓)
  CL: A ↓
[2]; 2% (or 5%) solutions or suspensions, 1 day room temperature, HPMC Cellulose 4000 0.5%, suspension (↓)
  CL: A ↓
[2]; 2% (or 5%) solutions or suspensions, 1 day room temperature, Tween 80, 0.8%, suspension (↓)
  CL: A ↓
[3]; Solid state, 2 week 50° C., tight container
  Bulk (XRPD): change: No
[3]; Solid state, 2 week 50° C./75% r.h., footnote: new peak in the XRPD pattern compared with unstressed diphosphate
  Bulk (XRPD): change: No
[3]; Solid state, 2 week 80° C., tight container
  Bulk (DSC): change: No
[3]; Solid state, 2 week 80° C./75% r.h., footnote: pattern similar to that of phosphate, with one extra peak
  Bulk (XRPD): change: No
[3]; Xenon light (approx. 1200 kLuxh)
  Bulk (XRPD): change: No
[4]
  Bulk corrosivity: No visible change
[5]
  pH of 1% solution or suspension: 1.69
[6]; Heating rate 10° C./min
  Thermogravimetry (weight loss in %): 0.48% at 150 °C
[6]; Hygroscopicity, as is
  Loss on drying by TGA (%): 0.48 at 150 °C %
[7]
  XRPD after DVS test: No change
[7]; RH 0.0%
  DVS Desorp. Weight % chg.: −0.0114%
  DVS Sorp. Weight % chg.: −0.0001%
[7]; RH 25.0%
  DVS Desorp. Weight % chg.: 0.3799%
  DVS Sorp. Weight % chg.: 0.3334%
[7]; RH 50.0%
  DVS Desorp. Weight % chg.: 0.4932%
  DVS Sorp. Weight % chg.: 0.4660%
[7]; RH 75.0%
  DVS Desorp. Weight % chg.: 0.6069%
  DVS Sorp. Weight % chg.: 0.5753%
[7]; RH 85.0%
  DVS Desorp. Weight % chg.: 0.6817%
  DVS Sorp. Weight % chg.: 0.6525%
[7]; RH 95.0%
  DVS Desorp. Weight % chg.: 0.8784%
  DVS Sorp. Weight % chg.: 0.8784%
[8]; 0.1N HCl solution
  Crystal modification after 72 hours vibration (DSC/XRPD/TG): XRPD pattern
[8]; Acetone, N—no, Y—yes
  Crystal modification after 72 hours vibration (DSC/XRPD/TG): N, no form change
[8]; Acetonitrile, N—no, Y—yes
  Crystal modification after 72 hours vibration (DSC/XRPD/TG): N, no form change
[8]; Ethanol, N—no, Y—yes
  Crystal modification after 72 hours vibration (DSC/XRPD/TG): N, no form change
[8]; Ethyl acetate, N—no, Y—yes
  Crystal modification after 72 hours vibration (DSC/XRPD/TG): N, no form change
[8]; Iso Propanol, N—no, Y—yes
  Crystal modification after 72 hours vibration (DSC/XRPD/TG): N, no form change
[8]; Water
  Crystal modification after 72 hours vibration (DSC/XRPD/TG): Dissociated to free
  Final pH of slurry: Final pH 1.94
[8]; pH 3 buffer
  Crystal modification after 72 hours vibration (DSC/XRPD/TG): Dissociated to free
  Final pH of slurry: Final pH 2.89
[8]; pH 6.8 buffer
  Crystal modification after 72 hours vibration (DSC/XRPD/TG): No form change
  Final pH of slurry: Final pH 5.93
[9]; 1 day
  Solubility (approx. at 25° C., mg/ml): 0.000 (Final mg/ml
[9]
  Final pH of solubility sample: pH 5.93)
[10]; pH 1, simulated gastric fluid
  solubility at 1 day: 2 µg/mL
[10]; water
  solubility at 1 day: 5 µg/mL

— patent US8063043B2, “Salts of N-[6-cis-2,6-dimethylmorpholin-4-yl)pyridine-3-yl]-2-methyl-4′-(trifluoromethoxy)[1,1′-biphenyl]-3-carboxamide” (Novartis AG, priority 2008, dated 2011)
